In paper PMC3871529, “At a Supra-Physiological Concentration, Human Sexual Hormones Act as Quorum-Sensing Inhibitors” (PLoS ONE, 2013):

Key:
[1] = system: P. aeruginosa; experiment: Growth kinetics of P. aeruginosa in the presence of QSIs; format: cell-based, Pseudomonas aeruginosa; details: QSI at 0.5 mg/ml, OD600 and CFU at 8 and 18 hour
Procedure: (§1) Figure 5 QSIs modulated QS-signal accumulation in P. aeruginosa. Growth kinetics (n = 6) of P. aeruginosa was measured (OD600) in the presence of the QSIs (estradiol, estrone, estriol, hordenine and 4-NPO) at 0.5 mg/ml using DMSO as a negative control. Cell counts were assessed (CFU/ml) at 8- and 18-hour, and C4-HSL and OC12-HSL concentration (µM) were determined in the bacterial cultures at 18-hour. Statistically different values (Student's t test with α = 0.01) are noted by asterisks.
(§2) QS gene transcription in P. aeruginosa PAO1 was monitored using PAO1 strains carrying various gene promoters fused to a lacZ reporter gene, as described in Vandeputte et al., 2010 and Table 1. PAO1 reporter strains were prepared according to Vandeputte et al.. Briefly, 18-hours-old liquid cultures (50 µl) were diluted in order to obtain a starting OD600 nm comprised between 0.02 and 0.03 in fresh LB medium supplemented with 50 mM MOPS pH 7.0 (1 ml), carbenicillin (300 µg/ml) and 10 µl of the QSIs to be tested (OD were measured using a SpectraMax M2 device from Molecular Devices). Test and control QSIs were diluted in 100% DMSO (resulting after addition to the growth medium in a 1% final concentration of DMSO). Cultures were incubated for 18 hours at 37°C with agitation. After incubation, cell densities were assessed spectrophotometrically (OD600 nm) and β-galactosidase assays were performed using the substrate o-nitrophenyl-β-D-galactopyranoside as described previously, [29]. Promoterless-lacZ fusions were used as controls. AHLs were quantified as described in Vandeputte et al.. All tests were performed in quintuplicates and three biological repetitions. The statistical significance of each test was evaluated by conducting Student's t tests and two-way ANOVA combined with the Tukey post-analysis test using the GraphPad Prism software and p values≤0.01 were considered significant.

[2] = system: QS-signal accumulation in P. aeruginosa; experiment: AHL (C4-HSL, OC12-HSL) quantification in P. aeruginosa cultures by mass spectrometry; format: cell-based, Pseudomonas aeruginosa; details: QSI at 0.5 mg/ml, 18-hour
Procedure: as §1, §2

[3] = molecular target: T1, LasR (Pseudomonas aeruginosa, UniProt P25084); experiment: E. coli bioindicator expressing LasR (pAL105, lasI::luxCDABE luminescence); format: cell-based; details: OC12-HSL 100 µM; QSIs at 0.1 mg/ml, naringenin and naringin at 0.5 mg/ml
T1 construct: expressed in transfected cells; host or cells: Escherichia coli JLD271 carrying pAL105 (pSB401-derivative, lasR+ lasI::luxCDABE)
T1 sequence (P25084 whole entry): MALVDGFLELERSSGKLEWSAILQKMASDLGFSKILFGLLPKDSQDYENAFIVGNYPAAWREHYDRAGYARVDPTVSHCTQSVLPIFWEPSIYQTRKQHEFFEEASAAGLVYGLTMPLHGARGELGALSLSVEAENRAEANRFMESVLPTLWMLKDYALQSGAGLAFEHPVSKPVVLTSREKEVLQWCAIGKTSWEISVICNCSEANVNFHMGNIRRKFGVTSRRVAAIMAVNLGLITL
Procedure: (§3) We determined whether the AHL-binding transcriptional factors LasR and RhlR were impaired in their capacity to activate expression of the QS-regulated genes in the presence of various QSIs. This was achieved by using two E. coli bioindicator strains expressing either LasR or RhlR proteins and harboring an appropriate reporter lux operon for measuring their transcriptional activity in the presence of OC12-HSL at 100 µM and C4-HSL at 10 µM, respectively. Adding C4-HSL to the pAL101-bioindicator or OC12-HSL to the pAL105-bioindicator induced the expression of the reporter lux operon and the consequent production of luminescence. In contrast, only background levels of luminescence were detected in control strains harboring the plasmids pAL102 or pAL106, which lacks the rhlR or lasR gene, respectively.
(§4) Figure 7 QSIs modulated activity of the AHL-sensors in P. aeruginosa. Luminescence of the reporting operon lux, expressed in relative light units (RLU/OD600), was measured in E. coli bioindicator strains harboring the LasR (A) and RhlR (B) AHL-sensing systems of P. aeruginosa in the presence of […]. The QSIs estradiol, estrone, estriol and hordenine were added at 0.1 mg/ml, while naringenin and naringin, added at 0.5 mg/ml, were used as QSI-reference and non-QSI reference, respectively. Each test (n = 6) was compared with the DMSO-condition using Student's t test. Asterisks indicate statistically different data (p value of ≤0.01).
(§5) Escherichia coli JLD271 biosensor strains harboring LasR- and RhlR-based plasmids pAL105 and pAL101 and control plasmids pAL106 (LasR^-) and pAL102 (RhlR^−) (Table 1) were prepared according to Vandeputte et al.. Briefly, these strains were grown in LB medium supplemented with tetracycline (10 µg/ml) and chloramphenicol (25 µg/ml) for 24 h. Then 50-µl portions of the cultures were subcultured in 1 ml of LB medium (the starting OD600 ranged between 0.02 and 0.025 corresponding to 5.10^6 CFU) supplemented with 10 µl of DMSO (1% [vol/vol] final), 10 µl of naringenin or naringin dissolved in DMSO (2 mM, final concentration), or 10 µl of the molecule to be tested. To induce the expression of the lux operon, 0, 1, 10 or […] of C4-HSL was added to pAL101 and pAL102, while OC12-HSL was added to pAL105 and pAL106. After incubation for 2 h at 37°C with agitation (175 rpm), 200 µl of culture was transferred to 96-well OptiPlate-96 F plates from Perkin-Elmer, and the luminescence of each sample was measured by using a TopCount NXT device from Perkin-Elmer. The LasR(pAL106) and RhlR(pAL102) biosensors were used for background subtraction, and the OD600 values were measured to account for the differences in cell density. All experiments were performed in six replicates. The statistical significance of each test was evaluated by conducting Student's t tests using the GraphPad Prism software, and p values ≤0.05 were considered significant. Naringenin (4′,5,7-trihydroxyflavanone), naringin (4′,5,7-trihydroxyflavanone 7-rhamnoglucoside), the AHLs OC12-HSL and C4-HSL were purchased from Sigma-Aldrich and dissolved freshly in 100% DMSO before use. Tested QSIs were dissolved in 100% DMSO before use.

[4] = molecular target: T2, RhlR (Pseudomonas aeruginosa, UniProt P54292); experiment: E. coli bioindicator expressing RhlR (pAL101, rhlI::luxCDABE luminescence); format: cell-based; details: C4-HSL 10 µM; QSIs at 0.1 mg/ml, naringenin and naringin at 0.5 mg/ml
T2 construct: expressed in transfected cells; host or cells: Escherichia coli JLD271 carrying pAL101 (pSB401-derivative, rhlR+ rhlI::luxCDABE)
T2 sequence (P54292 whole entry): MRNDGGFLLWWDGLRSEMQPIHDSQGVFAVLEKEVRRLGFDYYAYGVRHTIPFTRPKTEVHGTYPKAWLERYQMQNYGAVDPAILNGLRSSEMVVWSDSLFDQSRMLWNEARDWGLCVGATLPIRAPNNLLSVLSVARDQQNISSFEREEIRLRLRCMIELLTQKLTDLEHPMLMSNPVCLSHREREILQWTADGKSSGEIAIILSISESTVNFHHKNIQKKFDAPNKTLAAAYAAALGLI
Procedure: as §3, §4, §5

Molecule | effect on growth of P. aeruginosa [1] | C4-HSL concentration in cell cultures [2] | OC12-HSL concentration in cell cultures [2] | effect on LasR functionality (lux luminescence) [3] | effect on RhlR functionality (lux luminescence) [4]
3-Hydroxy-13-methyl-6,7,8,9,11,12,13,14,15,17-decahydro-cyclopenta[a] phenanthren-16-one [Compound 729, reference compound] | did not affect the growth | reduction | reduction | significant impact | significant impact
C[C@]12CC[C@@H]3c4ccc(O)cc4CC[C@H]3[C@@H]1C[C@@H](O)[C@@H]2O [Estriol, estriol] | did not affect the growth | reduction | reduction | significant impact | significant impact
CN(C)CCc1ccc(O)cc1 [Compound 3499, hordenine] | slightly delayed the growth | reduction | reduction | significant impact | significant impact
